Experimental data: ChEMBL document CHEMBL5247595, “Synthesis, antitumor, and apoptosis-inducing activities of novel 5-arylidenethiazolidine-2,4-dione derivatives: Histone deacetylases inhibitory activity and molecular docking study” (Eur J Med Chem, 2022)
One block for each compound: values may come before it.

Key:
[1] = test system: MCF7; experiment: Induction of apoptosis in human MCF7 cells assessed as fold increase in caspases-7 expression by ELISA assay; assay type: functional
[2] = test system: HCT-116; experiment: Induction of cell cycle arrest in human HCT-116 cells assessed as accumulation at G0/G1 phase by PI-staining based flow cytometry (reference value: 47%); assay type: functional
[3] = test system: HepG2; experiment: Induction of cell cycle arrest in human HepG2 cells assessed as accumulation at S phase by PI-staining based flow cytometry (reference value: 5.8%); assay type: functional
[4] = test system: MCF7; experiment: cells; assay type: functional, cell-based; details: Homo sapiens, MCF7, 48 h
Description: Cytotoxicity against human MCF7 cells assessed as inhibition of cell growth measured after 48 hrs by MTT assay

[5] = test system: HCT-116; experiment: Induction of apoptosis in human HCT-116 cells assessed as fold increase in caspases-7 expression by ELISA assay; assay type: functional
[6] = test system: MCF7; experiment: Induction of cell cycle arrest in human MCF7 cells assessed as accumulation at S phase by PI-staining based flow cytometry (reference value: 6.3%); assay type: functional
[7] = test system: MCF7; experiment: Induction of cell cycle arrest in human MCF7 cells assessed as accumulation at G2/M phase by PI-staining based flow cytometry (reference value: 35.3%); assay type: functional
[8] = test system: HepG2; experiment: Induction of apoptosis in human HepG2 cells assessed as fold increase in caspases-7 expression by ELISA assay; assay type: functional
[9] = molecular target: T1, Protein deacetylase HDAC6 (Homo sapiens, UniProt Q9UBN7); experiment: Inhibition of HDAC6 (unknown origin) by ELISA assay
T1 sequence (Q9UBN7 whole entry): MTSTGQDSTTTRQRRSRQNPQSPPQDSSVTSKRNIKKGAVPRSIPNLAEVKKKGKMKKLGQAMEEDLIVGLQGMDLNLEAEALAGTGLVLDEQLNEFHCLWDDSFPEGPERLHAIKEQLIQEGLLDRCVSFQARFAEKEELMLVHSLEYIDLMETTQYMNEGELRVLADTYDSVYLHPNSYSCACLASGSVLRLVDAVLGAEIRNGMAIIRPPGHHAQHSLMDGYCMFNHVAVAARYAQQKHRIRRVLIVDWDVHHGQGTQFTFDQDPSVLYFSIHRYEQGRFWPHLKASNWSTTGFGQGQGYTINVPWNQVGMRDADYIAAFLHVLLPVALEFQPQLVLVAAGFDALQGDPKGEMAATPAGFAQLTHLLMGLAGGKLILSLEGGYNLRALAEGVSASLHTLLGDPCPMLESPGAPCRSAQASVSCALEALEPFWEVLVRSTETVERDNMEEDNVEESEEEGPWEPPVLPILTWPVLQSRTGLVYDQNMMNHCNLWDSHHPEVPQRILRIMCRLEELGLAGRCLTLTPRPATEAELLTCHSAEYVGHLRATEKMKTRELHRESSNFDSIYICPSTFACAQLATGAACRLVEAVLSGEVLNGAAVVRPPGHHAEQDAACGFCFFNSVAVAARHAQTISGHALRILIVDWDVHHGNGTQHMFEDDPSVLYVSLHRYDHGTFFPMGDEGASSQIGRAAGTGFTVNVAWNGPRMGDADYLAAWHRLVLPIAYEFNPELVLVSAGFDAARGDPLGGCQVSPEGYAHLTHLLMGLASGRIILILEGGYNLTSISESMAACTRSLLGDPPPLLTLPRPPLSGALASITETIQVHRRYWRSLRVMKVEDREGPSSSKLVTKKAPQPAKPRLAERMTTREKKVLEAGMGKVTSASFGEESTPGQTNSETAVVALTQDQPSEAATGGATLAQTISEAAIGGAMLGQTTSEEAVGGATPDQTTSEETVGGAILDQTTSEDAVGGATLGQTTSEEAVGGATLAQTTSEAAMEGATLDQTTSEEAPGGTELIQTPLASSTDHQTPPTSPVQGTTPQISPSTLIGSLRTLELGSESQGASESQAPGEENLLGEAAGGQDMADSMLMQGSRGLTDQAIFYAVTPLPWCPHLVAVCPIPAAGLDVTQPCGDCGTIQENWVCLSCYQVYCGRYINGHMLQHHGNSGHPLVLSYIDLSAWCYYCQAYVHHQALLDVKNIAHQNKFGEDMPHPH

[10] = test system: HepG2; experiment: Induction of apoptosis in human HepG2 cells assessed as fold increase in BAX expression by ELISA assay; assay type: functional
[11] = test system: HCT-116; experiment: Induction of cell cycle arrest in human HCT-116 cells assessed as accumulation at G2/M phase by PI-staining based flow cytometry (reference value: 29.2%); assay type: functional
[12] = test system: HepG2; experiment: Induction of cell cycle arrest in human HepG2 cells assessed as accumulation at G0/G1 phase by PI-staining based flow cytometry (reference value: 35.2%); assay type: functional
[13] = test system: HCT-116; experiment: Induction of apoptosis in human HCT-116 cells assessed as fold increase in caspases-3 expression by ELISA assay; assay type: functional
[14] = test system: MCF7; experiment: Induction of cell cycle arrest in human MCF7 cells assessed as accumulation at G0/G1 phase by PI-staining based flow cytometry (reference value: 40.8%); assay type: functional
[15] = test system: HCT-116; experiment: Induction of cell cycle arrest in human HCT-116 cells assessed as accumulation at sub-G1 phase by PI-staining based flow cytometry (reference value: 12%); assay type: functional
[16] = test system: PC-3; experiment: Cytotoxicity against human PC-3 cells assessed as inhibition of cell growth measured after 48 hrs by MTT assay; assay type: functional, cell-based; details: PC-3, 48 h
[17] = test system: HCT-116; experiment: cells; assay type: functional, cell-based; details: Homo sapiens, HCT-116, 48 h
Description: Cytotoxicity against human HCT-116 cells assessed as inhibition of cell growth measured after 48 hrs by MTT assay

[18] = in vitro; details: human, WI-38 cells
Description: Cytotoxicity against human WI-38 cells assessed as inhibition of cell growth measured after 48 hrs by MTT assay

[19] = test system: HeLa; experiment: cells; assay type: functional, cell-based; details: Homo sapiens, 48 h
Description: Cytotoxicity against human HeLa cells assessed as inhibition of cell growth measured after 48 hrs by MTT assay

[20] = test system: HepG2; experiment: cells; assay type: functional, cell-based; details: Homo sapiens, HepG2, 48 h
Description: Cytotoxicity against human HepG2 cells assessed as inhibition of cell growth measured after 48 hrs by MTT assay

[21] = molecular target: T2, Histone deacetylase 8 (Homo sapiens, UniProt Q9BY41); experiment: Inhibition of HDAC8 (unknown origin) by ELISA assay
T2 sequence (Q9BY41 whole entry): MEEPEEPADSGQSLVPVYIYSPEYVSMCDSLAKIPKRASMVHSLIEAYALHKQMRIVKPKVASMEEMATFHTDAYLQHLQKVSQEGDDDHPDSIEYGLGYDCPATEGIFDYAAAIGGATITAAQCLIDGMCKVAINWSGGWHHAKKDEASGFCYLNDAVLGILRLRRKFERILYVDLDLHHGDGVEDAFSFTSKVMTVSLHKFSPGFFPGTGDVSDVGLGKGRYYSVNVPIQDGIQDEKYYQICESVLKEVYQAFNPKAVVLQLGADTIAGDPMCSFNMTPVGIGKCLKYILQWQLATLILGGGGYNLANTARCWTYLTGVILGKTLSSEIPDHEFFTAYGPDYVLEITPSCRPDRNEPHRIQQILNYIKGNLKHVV

[22] = test system: MCF7; experiment: Induction of cell cycle arrest in human MCF7 cells assessed as accumulation at sub-G1 phase by PI-staining based flow cytometry (reference value: 13.2%); assay type: functional
[23] = molecular target: Histone deacetylase 2 (Homo sapiens, UniProt Q92769); experiment: Inhibition of HDAC2 (unknown origin) by ELISA assay
[24] = test system: HepG2; experiment: Induction of cell cycle arrest in human HepG2 cells assessed as accumulation at sub-G1 phase by PI-staining based flow cytometry (reference value: 12.6%); assay type: functional
[25] = molecular target: Histone deacetylase 1 (Homo sapiens, UniProt Q13547); experiment: Inhibition of HDAC1 (unknown origin) by ELISA assay
[26] = test system: HCT-116; experiment: Induction of apoptosis in human HCT-116 cells assessed as fold increase in BAX expression by ELISA assay; assay type: functional
[27] = test system: MCF7; experiment: Induction of apoptosis in human MCF7 cells assessed as fold increase in caspases-3 expression by ELISA assay; assay type: functional
[28] = test system: HCT-116; experiment: Induction of cell cycle arrest in human HCT-116 cells assessed as accumulation at S phase by PI-staining based flow cytometry (reference value: 7.1%); assay type: functional
[29] = test system: MCF7; experiment: Induction of apoptosis in human MCF7 cells assessed as fold increase in BAX expression by ELISA assay; assay type: functional
[30] = test system: HepG2; experiment: Induction of apoptosis in human HepG2 cells assessed as fold increase in caspases-3 expression by ELISA assay; assay type: functional
[31] = test system: HepG2; experiment: Induction of cell cycle arrest in human HepG2 cells assessed as accumulation at G2/M phase by PI-staining based flow cytometry (reference value: 41.5%); assay type: functional

Chain of Histone deacetylase 1 (Q13547 whole entry): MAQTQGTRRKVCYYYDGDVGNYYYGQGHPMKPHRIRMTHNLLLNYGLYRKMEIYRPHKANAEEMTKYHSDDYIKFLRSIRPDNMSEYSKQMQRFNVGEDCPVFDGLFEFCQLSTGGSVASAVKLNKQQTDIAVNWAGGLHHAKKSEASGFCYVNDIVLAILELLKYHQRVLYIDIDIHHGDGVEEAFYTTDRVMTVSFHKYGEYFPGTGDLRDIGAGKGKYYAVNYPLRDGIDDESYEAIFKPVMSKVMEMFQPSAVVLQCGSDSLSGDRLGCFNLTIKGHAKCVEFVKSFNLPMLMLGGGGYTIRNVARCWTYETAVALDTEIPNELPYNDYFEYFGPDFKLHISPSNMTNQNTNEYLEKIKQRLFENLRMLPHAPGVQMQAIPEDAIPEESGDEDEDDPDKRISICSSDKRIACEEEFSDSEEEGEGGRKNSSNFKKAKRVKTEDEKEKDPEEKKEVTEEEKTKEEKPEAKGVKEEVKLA
Chain of Histone deacetylase 2 (Q92769 whole entry): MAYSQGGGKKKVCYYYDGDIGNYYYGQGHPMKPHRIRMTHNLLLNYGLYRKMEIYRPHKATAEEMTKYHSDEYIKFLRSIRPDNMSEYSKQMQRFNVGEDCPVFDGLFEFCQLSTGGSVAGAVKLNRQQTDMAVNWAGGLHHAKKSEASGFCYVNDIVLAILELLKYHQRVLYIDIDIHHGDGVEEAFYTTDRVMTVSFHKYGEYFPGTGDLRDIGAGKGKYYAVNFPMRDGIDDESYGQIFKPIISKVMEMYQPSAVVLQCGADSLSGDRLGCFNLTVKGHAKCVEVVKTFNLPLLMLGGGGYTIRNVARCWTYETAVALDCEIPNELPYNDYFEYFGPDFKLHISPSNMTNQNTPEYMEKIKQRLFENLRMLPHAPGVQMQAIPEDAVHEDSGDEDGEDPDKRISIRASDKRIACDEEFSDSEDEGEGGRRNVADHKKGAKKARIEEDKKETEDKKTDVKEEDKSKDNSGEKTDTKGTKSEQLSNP

SMILES: COc1ccc(/C=C2\SC(=O)N(CCNC(=O)Nc3c(C)n(C)n(-c4ccccc4)c3=O)C2=O)cc1
fold change (FC) [1]: 6.6 | Activity [2]: 55.2% | Activity [3]: 1.6% | IC50 [4]: 5.14 µM | fold change (FC) [5]: 3.7 | Activity [6]: 4.8% | Activity [7]: 0.2% | fold change (FC) [8]: 9.1 | IC50 [9]: 0.258 µM | fold change (FC) [10]: 13.13 | Activity [11]: 0% | Activity [12]: 50.6% | fold change (FC) [13]: 3.9 | Activity [14]: 60.6% | Activity [15]: 39.5% | IC50 [16]: 13.9 µM | IC50 [17]: 3.16 µM | IC50 at 48 h [18]: 34.5 µM | IC50 [19]: 6.18 µM | IC50 [20]: 8.37 µM | IC50 [21]: 0.517 µM | Activity [22]: 31.7% | IC50 [23]: 0.834 µM | Activity [24]: 43.4% | IC50 [25]: 0.281 µM | fold change (FC) [26]: 4.9 | fold change (FC) [27]: 5.2 | Activity [28]: 1.6% | fold change (FC) [29]: 7.013 | fold change (FC) [30]: 5.2 | Activity [31]: 0%

SMILES: Cc1c(NC(=O)NCCN2C(=O)S/C(=C\c3ccc(Cl)cc3)C2=O)c(=O)n(-c2ccccc2)n1C
IC50 [4]: 46.9 µM | IC50 [16]: 40.1 µM | IC50 [17]: 36.3 µM | IC50 at 48 h [18]: 27.5 µM | IC50 [19]: 29.4 µM | IC50 [20]: 38.8 µM

SMILES: Cc1c(NC(=O)CN2C(=O)S/C(=C\c3ccc([N+](=O)[O-])cc3)C2=O)c(=O)n(-c2ccccc2)n1C
IC50 [4]: 82.4 µM | IC50 [16]: > 100 µM | IC50 [17]: 91.3 µM | IC50 at 48 h [18]: 43.8 µM | IC50 [19]: 77.2 µM | IC50 [20]: 84.3 µM

SMILES: COc1ccc(/C=C2\SC(=O)N(CC(=O)Nc3c(C)n(C)n(-c4ccccc4)c3=O)C2=O)cc1
IC50 [4]: 75.6 µM | IC50 [16]: 93.7 µM | IC50 [17]: 70.3 µM | IC50 at 48 h [18]: 52.9 µM | IC50 [19]: 64.8 µM | IC50 [20]: 68.5 µM

SMILES: Cc1ccc(/C=C2\SC(=O)N(CCNC(=O)Nc3c(C)n(C)n(-c4ccccc4)c3=O)C2=O)cc1
IC50 [4]: 37.4 µM | IC50 [16]: 58.6 µM | IC50 [17]: 32.7 µM | IC50 at 48 h [18]: 48.1 µM | IC50 [19]: 22.4 µM | IC50 [20]: 25.7 µM

SMILES: COc1cc(/C=C2\SC(=O)N(CCNC(=O)Nc3c(C)n(C)n(-c4ccccc4)c3=O)C2=O)cc(OC)c1OC
IC50 [4]: 7.58 µM | IC50 [9]: 0.475 µM | IC50 [16]: 35.4 µM | IC50 [17]: 12.5 µM | IC50 at 48 h [18]: 51.5 µM | IC50 [19]: 15.8 µM | IC50 [20]: 10.8 µM | IC50 [21]: 0.344 µM | IC50 [23]: 1.74 µM | IC50 [25]: 0.349 µM

SMILES: Cc1c(NC(=O)CN2C(=O)S/C(=C\c3ccc(Br)cc3)C2=O)c(=O)n(-c2ccccc2)n1C
IC50 [4]: 24.1 µM | IC50 [9]: 1.63 µM | IC50 [16]: 17.1 µM | IC50 [17]: 7.84 µM | IC50 at 48 h [18]: 66.7 µM | IC50 [19]: 9.41 µM | IC50 [20]: 19.2 µM | IC50 [21]: 1.09 µM | IC50 [23]: 3.85 µM | IC50 [25]: 0.458 µM

SMILES: O=C(CCCCCCC(=O)Nc1ccccc1)NO [VORINOSTAT]
IC50 [16]: 3.6 µM

Second part, led by results:

IC50 [4]: 58.1 µM | IC50 [17]: 78.1 µM | IC50 at 48 h [18]: > 100 µM | IC50 [19]: 72.6 µM | IC50 [20]: 52.3 µM
SMILES: Cc1c(NC(=O)NCCN2C(=O)S/C(=C\c3ccc(Br)cc3)C2=O)c(=O)n(-c2ccccc2)n1C
IC50 [16]: > 100 µM

IC50 [4]: 65.5 µM | IC50 [17]: 47.6 µM | IC50 at 48 h [18]: 83.7 µM | IC50 [19]: 53.1 µM | IC50 [20]: 57.6 µM
SMILES: Cc1ccc(/C=C2\SC(=O)N(CC(=O)Nc3c(C)n(C)n(-c4ccccc4)c3=O)C2=O)cc1
IC50 [16]: 45.3 µM

IC50 [4]: 18.6 µM | IC50 [9]: 0.144 µM | IC50 [17]: 44.8 µM | IC50 at 48 h [18]: 76.4 µM | IC50 [19]: 37.7 µM | IC50 [20]: 14 µM | IC50 [21]: 0.245 µM | IC50 [23]: 0.526 µM | IC50 [25]: 0.16 µM
SMILES: Cc1c(NC(=O)NCCN2C(=O)S/C(=C\c3ccc([N+](=O)[O-])cc3)C2=O)c(=O)n(-c2ccccc2)n1C
IC50 [16]: 69.3 µM

IC50 [4]: 42.6 µM | IC50 [17]: 23 µM | IC50 at 48 h [18]: 54.4 µM | IC50 [19]: 19.9 µM | IC50 [20]: 31.9 µM
SMILES: Cc1c(NC(=O)CN2C(=O)S/C(=C\c3ccc(Cl)cc3)C2=O)c(=O)n(-c2ccccc2)n1C
IC50 [16]: 28.9 µM
